Where two headings read alike, the source gives them in different places.
Columns and labels:
[1] = system: cellular dehydrogenase activity; details: for MTT (composite Z-score): normalized score vs mock-treated (DMSO) wells
C2C12 myotubes = details: for Viability (composite Z-score): normalized score vs mock-treated (DMSO) wells
nuOXPHOS transcripts = assay type: cell-based, mouse; details: for nucOX (composite Z-score): normalized score vs mock-treated (DMSO) wells
cytochrome c = assay type: cell-based, mouse; details: for cyt c (composite Z-score): normalized score vs mock-treated (DMSO) wells
reactive oxygen species = assay type: cell-based, mouse; details: for ROS (composite Z-score): normalized score vs mock-treated (DMSO) wells
[2] = system: mitochondrial membrane potential; assay type: cell-based, mouse; details: for ΔΨm (composite Z-score): normalized score vs mock-treated (DMSO) wells
OXPHOS gene expression = assay type: cell-based, mouse; details: for GE-HTS (composite Z-score): normalized score vs mock-treated (DMSO) wells
mtOXPHOS transcripts = assay type: cell-based, mouse; details: for mitoOX (composite Z-score): normalized score vs mock-treated (DMSO) wells
[3] = composite Z-score vs mock-treated (DMSO) wells, Conc 20 μM
[4] = composite Z-score vs DMSO, Conc 20 μM
[5] = composite Z-score vs DMSO wells, Conc 20 μM
[6] = normalized composite Z-score vs mock-treated (DMSO) wells, Conc 20 μM

Chain of cytochrome c (P62897 whole entry): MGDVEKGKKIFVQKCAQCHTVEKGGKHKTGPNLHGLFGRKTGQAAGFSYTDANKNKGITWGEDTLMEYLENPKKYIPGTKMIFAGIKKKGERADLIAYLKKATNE

## CC(C)c1ccc2c(c1)CCC1[C@](C)(CN)CCC[C@]21C.O=S(=O)(O)O (stereo partly drawn) [18-aminoabieta-8,11,13-triene sulfate]
[1]; Conc 20 μM
  MTT (composite Z-score): −0.762
C2C12 myotubes; Conc 20 μM
  Viability (composite Z-score): −0.143
nuOXPHOS transcripts; Conc 20 μM
  nucOX (composite Z-score): −0.771
Cytochrome c; Conc 20 μM
  cyt c (composite Z-score): 0.507
Reactive oxygen species; Conc 20 μM
  ROS (composite Z-score): 2.176
[2]; Conc 20 μM
  ΔΨm (composite Z-score): −0.519
OXPHOS gene expression; Conc 20 μM
  GE-HTS (composite Z-score): −0.727
mtOXPHOS transcripts; Conc 20 μM
  mitoOX (composite Z-score): −0.462

## C=C(C)c1cc2cc(C(C)=O)c(O)cc2o1 [euparin]
[1]; [3]
  MTT: −0.912
C2C12 myotubes; [3]
  Viability: 0.021
nuOXPHOS transcripts; [3]
  nucOX: 1.293
Cytochrome c; [3]
  cyt c: 0.419
Reactive oxygen species; [3]
  ROS: 0.795
[2]; [3]
  ΔΨm: −0.010
OXPHOS gene expression; [3]
  GE-HTS: 1.120
mtOXPHOS transcripts; [3]
  mitoOX: 0.484

## COc1ccc2c(c1)C1(C)CCC(=O)CC1CC2 (stereo not drawn)
[1]; Conc 20 μM
  MTT (composite Z-score): −1.993
C2C12 myotubes; Conc 20 μM
  Viability (composite Z-score): −1.914
nuOXPHOS transcripts; Conc 20 μM
  nucOX (composite Z-score): 0.140
Cytochrome c; Conc 20 μM
  cyt c (composite Z-score): −0.239
Reactive oxygen species; Conc 20 μM
  ROS (composite Z-score): 0.625
[2]; Conc 20 μM
  ΔΨm (composite Z-score): −0.939
OXPHOS gene expression; Conc 20 μM
  GE-HTS (composite Z-score): 0.129
mtOXPHOS transcripts; Conc 20 μM
  mitoOX (composite Z-score): 0.061

## COC(=O)C1(C)CCCC2(C)c3ccc(C(C)C)cc3C(=O)CC12 (stereo not drawn) [7-oxocallitrisic acid, methyl ester]
[1]; [4]
  MTT: 0.111
C2C12 myotubes; [4]
  Viability: 1.266
nuOXPHOS transcripts; [4]
  nucOX: −0.457
Cytochrome c; [4]
  cyt c: −0.923
Reactive oxygen species; [4]
  ROS: 0.162
[2]; [4]
  ΔΨm: 2.079
OXPHOS gene expression; [4]
  GE-HTS: −0.876
mtOXPHOS transcripts; [4]
  mitoOX: −1.555

## COc1cc(-c2coc3cc(OCc4ccccc4)c(OC)c(O)c3c2=O)cc(OCc2ccccc2)c1OC [irigenin, dibenzyl ether]
[1]; [4]
  MTT: −0.793
C2C12 myotubes; [4]
  Viability: −1.724
nuOXPHOS transcripts; [4]
  nucOX: −0.163
Cytochrome c; [4]
  cyt c: 0.012
Reactive oxygen species; [4]
  ROS: 0.088
[2]; [4]
  ΔΨm: 0.178
OXPHOS gene expression; [4]
  GE-HTS: −0.325
mtOXPHOS transcripts; [4]
  mitoOX: −0.602

## O=C(O)c1ccc(S(=O)(=O)N(Cl)Cl)cc1 [halazone]
[1]; [5]
  MTT: −0.445
C2C12 myotubes; [5]
  Viability: −0.242
nuOXPHOS transcripts; [5]
  nucOX: 0.593
Cytochrome c; [5]
  cyt c: −0.942
Reactive oxygen species; [5]
  ROS: 0.779
[2]; [5]
  ΔΨm: −0.334
OXPHOS gene expression; [5]
  GE-HTS: 0.565
mtOXPHOS transcripts; [5]
  mitoOX: 0.385

## CC1(C)C=CC(=O)[C@@]2(C)C1CC(=O)[C@]1(C)C2CC[C@@]2(C)[C@H](c3ccoc3)OC(=O)C3OC321 (stereo partly drawn) [deacetoxy-7-oxisogedunin]
[1]; Conc 20 μM
  MTT (composite Z-score): −0.791
C2C12 myotubes; Conc 20 μM
  Viability (composite Z-score): −0.301
nuOXPHOS transcripts; Conc 20 μM
  nucOX (composite Z-score): 0.821
Cytochrome c; Conc 20 μM
  cyt c (composite Z-score): 0.153
Reactive oxygen species; Conc 20 μM
  ROS (composite Z-score): 0.898
[2]; Conc 20 μM
  ΔΨm (composite Z-score): 0.332
OXPHOS gene expression; Conc 20 μM
  GE-HTS (composite Z-score): 0.816
mtOXPHOS transcripts; Conc 20 μM
  mitoOX (composite Z-score): 0.694

## CC(=O)Oc1ccccc1C(=O)Oc1ccccc1C(=O)O [acetylsalicylsalicylic acid]
[1]; Conc 13.32 μM
  MTT (composite Z-score): −1.621
C2C12 myotubes; Conc 13.32 μM
  Viability (composite Z-score): −0.840
nuOXPHOS transcripts; Conc 13.32 μM
  nucOX (composite Z-score): −0.249
Cytochrome c; Conc 13.32 μM
  cyt c (composite Z-score): −0.200
Reactive oxygen species; Conc 13.32 μM
  ROS (composite Z-score): 0.399
[2]; Conc 13.32 μM
  ΔΨm (composite Z-score): −0.808
OXPHOS gene expression; Conc 13.32 μM
  GE-HTS (composite Z-score): −0.301
mtOXPHOS transcripts; Conc 13.32 μM
  mitoOX (composite Z-score): −0.389

## O=c1c(O)cccc2c([C@H]3Oc4cc(O)cc(O)c4C[C@H]3O)cc(O)c(O)c12 [theaflavanin]
[1]; Conc 20 μM
  MTT (composite Z-score): −0.665
C2C12 myotubes; Conc 20 μM
  Viability (composite Z-score): −1.349
nuOXPHOS transcripts; Conc 20 μM
  nucOX (composite Z-score): −0.764
Cytochrome c; Conc 20 μM
  cyt c (composite Z-score): −0.166
Reactive oxygen species; Conc 20 μM
  ROS (composite Z-score): −0.040
[2]; Conc 20 μM
  ΔΨm (composite Z-score): −2.074
OXPHOS gene expression; Conc 20 μM
  GE-HTS (composite Z-score): −0.695
mtOXPHOS transcripts; Conc 20 μM
  mitoOX (composite Z-score): −0.333

## CCCCCC(=O)Cc1cc(O)cc(O)c1C(=O)Oc1cc(CC(=O)CCCCC)c(C(=O)O)c(OC)c1 [arthonioic acid]
[1]; [4]
  MTT: −2.597
C2C12 myotubes; [4]
  Viability: −0.413
nuOXPHOS transcripts; [4]
  nucOX: −0.590
Cytochrome c; [4]
  cyt c: −0.019
Reactive oxygen species; [4]
  ROS: 1.167
[2]; [4]
  ΔΨm: −0.493
OXPHOS gene expression; [4]
  GE-HTS: −0.668
mtOXPHOS transcripts; [4]
  mitoOX: −0.657

## 3-nor-3-oxopanasinsan-6-ol
[1]; [6]
  MTT: −0.492
C2C12 myotubes; [6]
  Viability: 0.209
nuOXPHOS transcripts; [6]
  nucOX: −0.831
Cytochrome c; [6]
  cyt c: 0.864
Reactive oxygen species; [6]
  ROS: 0.172
[2]; [6]
  ΔΨm: −0.006
OXPHOS gene expression; [6]
  GE-HTS: −0.605
mtOXPHOS transcripts; [6]
  mitoOX: 0.004

## O=C(O[C@@H]1Cc2c(O)cc(O)cc2O[C@@H]1c1cc(O)c(O)c(O)c1-c1c([C@H]2Oc3cc(O)cc(O)c3C[C@H]2OC(=O)c2cc(O)c(O)c(O)c2)cc(O)c(O)c1O)c1cc(O)c(O)c(O)c1 [2′,2′-bisepigallocatechin digallate]
[1]; [6]
  MTT: −0.826
C2C12 myotubes; [6]
  Viability: 0.851
nuOXPHOS transcripts; [6]
  nucOX: −0.836
Cytochrome c; [6]
  cyt c: 0.616
Reactive oxygen species; [6]
  ROS: −0.130
[2]; [6]
  ΔΨm: −1.132
OXPHOS gene expression; [6]
  GE-HTS: −0.865
mtOXPHOS transcripts; [6]
  mitoOX: −0.808

From patent US20090143279A1 (priority 2007, published 2009)
